Measured values: patent US8288549B2, “Glycine B antagonist” (Merz Pharma GmbH & Co. KGaA, priority 2008, dated 2012)

Key:
[1] = target: T1, glycine binding pocket of the NMDA receptor (Rattus norvegicus, UniProt P35439); test: [3H]-MDL-105,519 displacement studies on rat cortical membranes; conditions: displacement of 2 nM [3H]-MDL-105,519, rat cortical membranes, 4° C., 1 h; read-out: NMDA-MDL 105519-r-CTX - IC50
T1 construct: The cortex is dissected out and processed as described by Parsons, et al; from tissue; host or cells: rat cerebral cortex membranes (male Sprague-Dawley)
Description: [^3]MDL-105,519 Displacement Studies
For the evaluation of the binding affinity of the test compounds on the glycine binding pocket of the NMDA receptor, [^3H]-MDL-105,519 (GE Healthcare, Freiburg, Germany) displacement studies are performed using a 96-well plate robotic platform. MDL-105,519 (Baron et al., J Pharmacol Exp Ther 1996, 279(1), 62-68; Baron et al., European Journal of Pharmacology, 1997, 323(2-3), 181-192; Hoffner & Wanner, Neuroscience Letters, 1997, 226(2), 79-82) is a selective, high affinity antagonist at the NMDA receptor glycine site.
Tissue preparation is performed according to Foster & Wong (Br J Pharmacol, 1987, 91, 403-409) with some modifications. Anaesthetised male Sprague-Dawley rats (200-250 g, Janvier, Le Genest-Isle, France) are decapitated and their brains removed rapidly. The cortex is dissected out and processed as described by Parsons, et al. (J Pharmacol Exp Ther, 1997, 283(3), 1264-1275). For isolation of the cell membranes, the cortices are homogenized in 20 volumes of ice-cold 0.32 M sucrose (Sigma-Aldrich, Taufkirchen, Germany) using a glass-Teflon homogenizer. The homogenate is centrifuged at 1000×g for 10 minutes, the pellet is discarded and the supernatant centrifuged at 20,000×g for 20 minutes. The resulting pellet is re-suspended in 20 volumes of distilled water and centrifuged for 20 minutes at 8000×g. The supernatant and the buffy coat are then centrifuged three times (48,000×g for 20 minutes) in the presence of 50 mM Tris-HCl, pH 8.0 (assay buffer). All centrifugation steps are carried out at 4° C. After resuspension in 5 volumes of 50 mM Tris-HCl, pH 7.5, the membrane suspension is frozen rapidly at −80° C. On the day of assay, the membranes are thawed and washed four times by resuspension in 50 mM Tris-HCl, pH 7.5, and centrifugation at 48,000×g for 20 minutes. The final pellet is suspended in assay buffer. The amount of protein in the final membrane preparation is determined according to the method of Lowry, et al. (J. Biological Chemistry, 1951, 193, 256-275) with some modifications (Hartree, Analytical Biochemistry, 1972, 48, 422-427). The final protein concentration used for our studies is 400 μg/ml.
A robotic system designed for binding assays (Tecan Deutschland GmbH, Crailsheim, Germany) is loaded with the membrane solution, solutions for bound control (buffer/DMSO 20%), unlabeled glycine (1 mM) for evaluation of non-specific binding, all compounds to be tested (at 20-fold concentrations), radioligand and respective 96-well plates.
Before performing displacement studies, saturation experiments are performed to determine the equilibrium dissociation constant (Kd) of [^3H]-MDL-105,519, which is a parameter for the affinity of the radioligand to the binding site. The protein/receptor concentration is held constant whereas the amount of specific bound radioligand is determined using increasing concentrations of ligand.
On the basis of the saturation experiments, a final [^3H]-MDL-105,519 concentration of 2 nM is selected. Firstly, the assay plates are loaded with membrane solution and are shaken at 4° C. The mother plates are then prepared by pipetting the compounds (n=4) into assay buffer/20% DMSO to obtain the desired final concentrations. After transferring radioligand into the assay plates, the compounds are added (including the bound and the non-specific binding control). The final DMSO concentration is 1%. The assay plates are incubated and shaken at 4° C. for 1 h, before the mixture is exhausted as rapidly as possible via a vacuum manifold using the Multiscreen HTS glass fibre (type B) filter plates (Millipore, Schwalbach, Germany) under a constant vacuum of 450 mbar. The membranes are washed four times with cold assay buffer (100 μL). […]

[2] = target: T2, NMDA receptor glycine B site (Rattus norvegicus, UniProt P35439); test: Whole cell patch-clamp recordings in cultured rat hippocampal neurons (NMDA/D-Serine evoked currents); type: cell-based; conditions: NMDA (200 μM) and D-Serine (1 μM), holding potential −70 mV, read-out: NMDA-PC-r-HIC-NAM - IC50
T2 construct: Hippocampi are then isolated from the brains of at least 8 embryos after decapitation; endogenous in cells; host or cells: primary cultured hippocampal neurons from E20 Sprague-Dawley rat embryos, 11-15 DIV
Description: Antagonistic potencies of the test compounds are functionally evaluated using electrophysiological whole cell patch-clamp recordings and/or fluorometric intracellular Ca^2+-imaging (FLIPR) screens.
Cell preparation is performed as described by Parsons, et al. (Neuropharmacology, 1998, 37(6), 719-727). The female Sprague-Dawley rat is anaesthetised by placing in a saturated CO2-euthanasia chamber under further quiet CO2-influx. Under these conditions the rat loses consciousness after a few seconds and is then sacrificed by cervical dislocation. After opening the abdominal cavity, embryos (E20) are removed and stored in ice cold Ca^2+- and Mg^2+-free Hank's Buffered Salt Solution (pH 7.3), containing 4 g/l glucose (HBSS-CMF). Hippocampi are then isolated from the brains of at least 8 embryos after decapitation, transferred into ice cold HBSS-CMF and washed 3 to 4 times.
Hippocampi are pre-incubated for 8 min with a 0.66% trypsin (Sigma-Aldrich) and 0.1% (20 U/ml) DNAase solution (Sigma-Aldrich) in Ca^2+-free Phosphate Buffered Saline (PBS-CF) and washed 3 times with HBSS-CMF. Cells are then mechanically dissociated by trituration in a PBS-CF solution containing 0.05% (10 U/ml) DNAase and 0.3% of the trypsin inhibitor ovomucoid (all from Sigma-Aldrich). The cells are then centrifuged at 180×g for 10 minutes, and the cell pellet re-suspended in basal Minimum essential medium (MEM, Invitrogen, Karlsruhe, Germany), again carefully triturated to ensure maximal dissociation and finally plated in the flexiPERM inserts (Thermo Fisher Scientific, Langenselbold, Germany) at a density of 15×10^3 cells/cm^2 (0.5 ml/insert) onto poly-DL-ornithine (Sigma) and mouse laminin (Invitrogen) pre-coated plastic petri dishes. After 1 hour the cells become attached to the bottom of the dish and the inserts may be removed. The cells are then nourished with 2 ml MEM supplemented with 5% foetal calf serum (FCS) and 5% horse serum and incubated at 37° C. with 95% air and 5% CO2 at 95% humidity. After 4 days in vitro (DIV) further glial mitosis is inhibited by adding 10 μl of AraC (5 μM endconcentration). The medium is completely exchanged after an additional 2 DIV and again, but only partly (50%), after 8 DIV. The cells are used for electrophysiological recordings after 11-15 DIV.
Cells are visualised using an inverted microscope and selected for patching based upon their position and morphology. Voltage clamp recordings are made in the whole cell configuration of the patch clamp technique at a holding potential of −70 mV with the aid of an EPC-10 amplifier in combination with pipette manipulator. Patch clamp pipettes are pulled from borosilicate glass using a horizontal puller (P-97 Puller, Sutter Instruments, USA) and, when filled with intracellular solution, have resistances of 1-4 MΩ.
Solutions are delivered via a home-made gravity driven very fast perfusion system (<10 ms) including valves to switch flow on and off in combination with a stepper motor-driven double-barreled theta glass application pipette in order to expose cells to either agonist-free or agonist-containing solutions in presence or absence of antagonist.
The intracellular solution used consists of: 120 mM CsCl, 10 mM EGTA, 1 mM MgCl2, 200 μM CaCl2, 10 mM glucose and 22 mM tetraethyl ammonium chloride (TEA-CL). The corresponding extracellular bath solution contains: 140 mM NaCl, 3 mM KCl, 10 mM glucose, 10 mM HEPES, 1.5 mM CaCl2 and 4.5 mM sucrose (all from Sigma-Aldrich) pH 7.3, and is supplemented with 0.3 μM tetrodotoxin (TTX, Tocris, Bristol, U.K.) to block voltage-activated sodium channels and 0.25 μM bicuculline (Sigma-Aldrich) to block GABAA receptors. […]

Row | Compound | IC50 [1] [nM] | IC50 [2] [nM] | melting point
1 | O=C(O)c1cc2cc(Cl)ccc2nc1N[C@@H](Cc1ccc(Oc2nc3ccc(Cl)cc3cc2C(=O)O)cc1)C(=O)O [Example 8, 2-{(S)-1-Carboxy-2-[4-(3-carboxy-6-chloroquinolin-2-yloxy)-phenyl]-ethylamino}-6-chloro-quinoline-3-carboxylic acid] | 450 |  | 
2 | O=C(O)c1cc2cc(Cl)ccc2nc1N[C@@H](Cc1ccc(OCc2ccccc2)cc1)C(=O)O [Example 22, 2-[(S)-2-(4-Benzyloxy-phenyl)-1-carboxy-ethylamino]-6-chloro-quinoline-3-carboxylic acid] | 2700 |  | 
3 | CC(c1ccccc1)C(Nc1nc2ccc(Cl)cc2cc1C(=O)O)C(=O)O (stereo not drawn) [Example 31, erythro-2-(1-Carboxy-2-phenyl-propylamino)-6-chloro-quinoline-3-carboxylic acid] | 3370 |  | 
4 | O=C(O)c1cc2cc(Cl)c(Cl)cc2nc1N[C@@H](Cc1ccccc1)C(=O)O [Example 32, 2-((S)-1-Carboxy-2-phenyl-ethylamino)-6,7-dichloro-quinoline-3-carboxylic acid] | 5800 |  | 
5 | O=C(O)c1cc2cc(Cl)ccc2nc1N[C@@H](CC1CCCCC1)C(=O)O [Example 35, 2-((S)-1-Carboxy-2-cyclohexyl-ethylamino)-6-chloro-quinoline-3-carboxylic acid] | 3300 |  | 
6 | N.N.O=C(O)c1cc2cc(Cl)ccc2nc1NC(Cc1ccccc1F)C(=O)O (stereo not shown) [Example 40, 2-[1-Carboxy-2-(2-fluoro-phenyl)-ethylamino]-6-chloro-quinoline-3-carboxylic acid ammonium salt] |  | 754 | 144 to 148 °C (dec.)
7 | O=C(O)c1cc2cc(Br)ccc2nc1N[C@H](Cc1ccccc1)C(=O)O [Example 47, 6-Bromo-2-((R)-1-carboxy-2-phenyl-ethylamino)-quinoline-3-carboxylic acid] |  | 468 | 140 to 141 °C
8 | Nc1cc(C[C@H](Nc2nc3ccc(Cl)cc3cc2C(=O)O)C(=O)O)ccc1Oc1nc2ccc(Cl)cc2cc1C(=O)O [Example 48, 2-{(S)-2-[3-Amino-4-(3-carboxy-6-chloro-quinolin-2-yloxy)-phenyl]-1-carboxy-ethylamino}-6-chloro-quinoline-3-carboxylic acid] |  | 680 | > 250 °C

Next, values leading:

Row | IC50 [1] [nM] | IC50 [2] [nM] | melting point | Compound
9 |  | 640 | > 250 °C (dec.) | O=C(O)c1cc2cc(Cl)ccc2nc1Nc1ccc(CC(Nc2nc3ccc(Cl)cc3cc2C(=O)O)C(=O)O)cc1 (stereo not shown) [Example 59, 2-{1-Carboxy-2-[4-(3-carboxy-6-chloro-quinolin-2-ylamino)-phenyl]-ethylamino}-6-chloro-quinoline-3-carboxylic acid]
10 |  | 250 | 165 to 170 °C (dec.) | O=C(O)c1cc2cc(Cl)ccc2nc1NC(C(=O)O)C(C(=O)O)c1ccccc1 (stereo not shown) [Example 79, 2-(3-Carboxy-6-chloro-quinolin-2-ylamino)-3-phenyl-succinic acid]
11 |  | 420 | 145 to 150 °C | O=C(O)c1cc2cc(Cl)ccc2nc1N[C@@H](Cc1ccc(Oc2ccc(Br)cn2)cc1)C(=O)O [Example 101, 2-{(S)-2-[4-(5-Bromo-pyridin-2-yloxy)-phenyl]-1-carboxy-ethylamino}-6-chloro-quinoline-3-carboxylic acid]
12 |  | 170 |  | O=C(O)c1cc2cc(Cl)ccc2nc1N[C@@H](Cc1ccc(Oc2ccc(I)cn2)cc1)C(=O)O [Example 131, 2-{1-Carboxy-2-[4-(5-iodo-pyridin-2-yloxy)-phenyl]-ethylamino}-6-chloro-quinoline-3-carboxylic acid]
13 | 1440 |  |  | O=C(O)c1cc2cc(Cl)ccc2nc1N[C@@H](Cc1ccc(Oc2ccnc3cc(Cl)ccc23)cc1)C(=O)O [Example 142, 2-{(S)-1-Carboxy-2-[4-(7-chloro-quinolin-4-yloxy)-phenyl]-ethylamino}-6-chloro-quinoline-3-carboxylic acid]
14 | 840 |  |  | O=C(O)c1cc2cc(Cl)ccc2nc1N[C@@H](Cc1ccc(Oc2ccncc2Br)cc1)C(=O)O [Example 144, 2-{(S)-2-[4-(3-Bromo-pyridin-4-yloxy)-phenyl]-1-carboxy-ethylamino}-6-chloro-quinoline-3-carboxylic acid]
15 | 290 |  |  | O=C(O)c1cc2cc(Cl)ccc2nc1N[C@@H](Cc1ccc(Oc2ccc3cc(Br)cnc3n2)cc1)C(=O)O [Example 147, 2-{(S)-2-[4-(6-Bromo-[1,8]naphthyridin-2-yloxy)-phenyl]-1-carboxy-ethylamino}-6-chloro-quinoline-3-carboxylic acid]
16 |  | 170 |  | O=C(O)c1cc2cc(Cl)ccc2nc1NC(Cc1ccccn1)C(=O)O (stereo not shown) [Example 149, 2-(1-Carboxy-2-pyridin-2-yl-ethylamino)-6-chloro-quinoline-3-carboxylic acid]
